From patent US9061984B2 (University of Louisville Research Foundation, Inc., priority 2008, dated 2015)
pIC50: −log10 of the molar value. Values after ≈ are worked out from the molar mass of the structure shown. Where two headings read alike, the source gives them in different places.

Key:
3T3 cells = test: Cell growth inhibition bioassay (sulforhodamine B); assay type: cell-based, mouse; conditions: Mus musculus, NIH3T3; 48 h, SRB; read-out: GI50 in indicated cell line: 3T3
Description: (§1) The cytotoxicity of compounds was assayed as follows. […] Appropriate solvent controls were tested for comparison. The percent inhibition of cell growth relative to the control was evaluated colorimetrically using a sulforhodamine B dye by comparison to the control. The calorimetric procedure followed that published in Skehan et al., J. Nat. Cancer Inst., […], pp. 1107-1112 (1990) and Boyd & Paull, Drug Dev. Res., Vol. 34, pp. 91-109 (1995). […] The cell lines are: 3T3 cells are BALB/3T3 clone A31 embryonic mouse fibroblast cells; H460 cells are human large cell lung cancer cells; DU145 cells are human prostate carcinoma cells; MCF-7 cells are human breast adenocarcinoma cells; M-14 cells are human melanoma cells; HT-29 cells are human colon adenocarcinoma cells; PC3 cells are human prostate adenocarcinoma cells; K562 cells are human chronic myelogenous leukemia cells; and VERO cells are African Green Monkey kidney epithelial cells.

DU145 cells = test: Cell growth inhibition bioassay (sulforhodamine B); assay type: cell-based, human; conditions: Homo sapiens, DU-145; 48 h, SRB; read-out: GI50 in indicated cell line: DU145
Description: as §1

H460 cells = test: Cell growth inhibition bioassay (sulforhodamine B); assay type: cell-based, human; conditions: Homo sapiens, NCI-H460; 48 h, SRB; read-out: GI50 in indicated cell line: H460
Description: as §1

HT-29 cells = test: Cell growth inhibition bioassay (sulforhodamine B); assay type: cell-based, human; conditions: Homo sapiens, HT-29; 48 h, SRB; read-out: GI50 in indicated cell line: HT-29
Description: as §1

K562 cells = test: Cell growth inhibition bioassay (sulforhodamine B); assay type: cell-based, human; conditions: Homo sapiens, K562; 48 h, SRB; read-out: GI50 in indicated cell line: K562
Description: as §1

M-14 cells = test: Cell growth inhibition bioassay (sulforhodamine B); assay type: cell-based, human; conditions: Homo sapiens, M14; 48 h, SRB; read-out: GI50 in indicated cell line: M-14
Description: as §1

MCF-7 cells = test: Cell growth inhibition bioassay (sulforhodamine B); assay type: cell-based, human; conditions: Homo sapiens, MCF7; 48 h, SRB; read-out: GI50 in indicated cell line: MCF-7
Description: as §1

VERO cells [1] = test: Cell growth inhibition bioassay (sulforhodamine B); assay type: cell-based, African Green Monkey; conditions: Chlorocebus sabaeus, Vero; 48 h, SRB; read-out: GI50 in indicated cell line: VERO
Description: as §1

[2] = tested on: Trypanosoma cruzi (Tulahuen C4); test: In vitro anti-T. cruzi activity (β-galactosidase CPRG colorimetric assay in VERO monolayer); assay type: cell-based; conditions: for Selectivity Index Lab B: IC50, VERO/IC50, T. cruzi; for IC50 / inhibition at 10 µg/mL / pIC50: Trypanosoma cruzi, TULAHUEN, Vero; for inhibition at 10 µg/mL: 120 h, 10 μg/mL of each compound, 120 hours, read-out: T. cruzi Inhib. (%); for pIC50: Table 3, read-out: IC50 T. cruzi
M. tuberculosis H37Rv = test: Conventional aerobic (MABA) culture assay, luminescence MIC; assay type: cell-based, Mycobacterium tuberculosis; conditions: Mycobacterium tuberculosis, 168 h; aerobic, 7 days, H37Rv
[3] = Toxicity to peritoneal macrophages (Trypan Blue count); assay type: cell-based, BALB/C mouse; conditions: BALB/C, mouse, Cytotoxicity Macrophages IC50
Description: (§2) Peritoneal macrophages were prepared as follows. Non-inflammatory macrophages (10^6) were collected from each BALB/C mouse. The cells adhered at 37° C. after 2 h under 5% CO2 in a CO2 incubator. The plates were then rinsed two to three times with 0.5 mL of RPMI+buffer MOPS without fetal calf serum to eliminate non-adhering cells. The supernatant on the plates was replaced by fresh medium (RPMI+glutamine+FCS+antibiotics), 0.5 mL of medium per well. To determine the toxicity of the compounds to macrophages, dilutions of compounds were added on a part of the macrophages prepared above. […] The medium was then removed and 1 μL of sterile Trypan Blue was added. Cover glasses N° 1 were left where cells were plated and then the number of macrophages in a microscope was determined with a haemocytometer. All experiments were performed in triplicate.

[4] = tested on: axenic amastigotes of L. amazonensis (strain MHOM/BR/76/LTB-012); conditions: Table 8b
[5] = tested on: axenic amastigotes of L. amazonensis (strain MHOM/BR/76/LTB-012); test: microbe, parasite or virus in culture; conditions: Leishmania amazonensis
[6] = Cytotoxicity on VERO cells (MTT), anti-T. cruzi study; conditions: African green monkey, VERO cells
VERO cells [7] = test: as above; conditions: Chlorocebus sabaeus, Vero, read-out: IC50 VERO, Table 3
peritoneal macrophages = test: Toxicity to peritoneal macrophages (Trypan Blue count); assay type: cell-based, BALB/C mouse; conditions: Mus musculus, Peritoneal macrophage, 48 h; Table 7; read-out: IC50 Macrophage
Description: as §2

[8] = Lab B, read-out: T. cruzi IC50 Lab B
[9] = Table 2, read-out: IC50 - T. cruzi
[10] = 72 h, read-out: IC50 L. amazonensis
[11] = IC50 - VERO Cytotoxicity, Table 2

SMILES	GI50 (3T3 cells) [µg/mL]	GI50 (DU145 cells) [µg/mL]	GI50 (H460 cells) [µg/mL]	GI50 (HT-29 cells) [µg/mL]	GI50 (K562 cells) [µg/mL]	GI50 (M-14 cells) [µg/mL]	GI50 (MCF-7 cells) [µg/mL]	GI50 (VERO cells [1]) [µg/mL]	Selectivity Index Lab B ([2]; Lab B)	IC50 [2, 8] [µg/mL]	MIC (M. tuberculosis H37Rv) [µg/mL]	IC50 at 48 h [3] [µM]	Selectivity Index [4]	pIC50 ([5]; read-out: L. amazonensis IC50)	inhibition at 10 µg/mL [2] [%]	IC50 [2, 9] [µg/mL]	pIC50 [2]	pIC50 [5, 10]	IC50 [6, 11] [µg/mL]	pIC50 (VERO cells [7])	also measured
C(=N/Nc1ncnc2sc3c(c12)CCCC3)/c1cccc2ccccc12 [II-02]	6 (≈ 16.7 µM)	8.6 (≈ 24 µM)	7.1 (≈ 19.8 µM)	2.2 (≈ 6.14 µM)	1.7 (≈ 4.74 µM)	6.6 (≈ 18.4 µM)	2.3 (≈ 6.42 µM)	4.3 (≈ 12 µM)	0.2	4.7	> 100	6	1.3	5.34	–	–	–	–	–	–	IC50 ([6]; Cytotoxicity VERO Lab B, Lab B): 1 µg/mL (≈ 2.79 µM)
C=CCOc1cc(OC)c(C(=O)/C=C/c2ccc(C)cc2)c(OCC=C)c1 [Compound I-24, (2E)-1-[2-Methoxy-4,6-bis(2-propenyloxy)phenyl]-3-(4-methylphenyl)-2-propen-1-one]	–	–	–	–	–	–	–	–	–	–	–	–	–	–	60.2	6.28	4.76	4.10	77 (≈ 211 µM)	3.68	–
COc1ccc(/C=N\Nc2ncnc3sc4c(c23)CCCC4)c(OC)c1 [II-13]	7.3 (≈ 19.8 µM)	7.4 (≈ 20.1 µM)	10.9 (≈ 29.6 µM)	7.4 (≈ 20.1 µM)	2.9 (≈ 7.87 µM)	34.8 (≈ 94.4 µM)	7.8 (≈ 21.2 µM)	17.7 (≈ 48 µM)	1.8	6.8	> 100	53	4.3	4.91	–	–	–	–	–	–	IC50 ([6]; Cytotoxicity VERO Lab B, Lab B): 12 µg/mL (≈ 32.6 µM)
C=CCOc1cc(OC)c(C(=O)/C=C/c2ccc(F)cc2)c(OCC=C)c1 [Compound I-23, (2E)-3-(4-Fluorophenyl)-1-[2-methoxy-4,6-bis(2-propenyloxy)phenyl]-2-propen-1-one]	–	–	–	–	–	–	–	–	–	–	–	–	–	–	66.5	5.27	4.84	5.02	5 (≈ 13.6 µM)	4.87	pIC50 (peritoneal macrophages): 4.86
C=CCOc1cc(OC)c(C(=O)/C=C/c2cc(OCC=C)c(Br)c(OCC=C)c2)c(OCC=C)c1 [Compound I-25, (2E)-3-(3,5-Bis(2-propenyloxy)-4-bromophenyl)-1-[2-methoxy-4,6-bis(2-propenyloxy)phenyl]-2-propen-1-one]	–	–	–	–	–	–	–	–	–	–	–	–	–	–	51.2	3.73	5.16	< 3.74	52 (≈ 96 µM)	4.02	–
C=CCOc1cc(OC)c(C(=O)/C=C/c2ccncc2)c(OCC=C)c1 [Compound I-26, (2E)-1-[2-Methoxy-4,6-bis(2-propenyloxy)phenyl]-3-(4-pyridinyl)-2-propen-1-one]	–	–	–	–	–	–	–	–	–	–	–	–	–	–	73.6	0.52	5.82	6.22	1 (≈ 2.85 µM)	5.55	–
C(=N/Nc1ncnc2sc3c(c12)CCCC3)/c1ccc2c(c1)OCO2 [II-12]	> 93.8	> 93.8	> 93.8	> 93.8	> 93.8	> 93.8	41.4 (≈ 117 µM)	> 93.8	0.7	8	> 100	5.7	0.6	4.98	–	–	–	–	–	–	IC50 ([2]; Lab A, read-out: T. cruzi IC50 Lab A): 2.3 µg/mL; IC50 ([6]; Cytotoxicity VERO Lab B, Lab B): 6 µg/mL (≈ 17 µM)
CC1CS(=O)(=O)CCN1/N=C/c1ccc([N+](=O)[O-])o1 (stereo not shown) [Nifurtimox, reference compound]	–	–	–	–	–	–	–	–	–	–	–	–	–	–	–	–	6.28	–	–	4.10	–
